The values that follow come from US20180273970A1, “PLASMID, TRANSFORMED PLANT CELL AND TRANSGENIC PLANT COMPRISING THE SAME, AND METHODS FOR PREPARING A TRANSGENIC PLANT AND FOR INCREASING YIELD OF A PLANT UNDER ABIOTIC STRESSES” (Academia Sinica, priority 2014, published 2018).

In assay [1] the test system is rice seedlings. The assay can be described thus: Seed germination and shoot elongation in air or under water (hypoxia). Format: in vivo. Particulars: under water with 90 mM sucrose. Here is the method:
FIG. 6. SKINs suppress sugar production necessary for seedling growth under hypoxia. Rice seeds were germinated in air or in water with or without 90 mM sucrose at 28° C. under a 14-h light/10-h dark cycle for various lengths of time. Shoot length of seedlings were measured daily. Error bars indicate the S.E. of shoot length (n=10). Panel 1: transgenic line SKIN1-04 overexpressing SKIN1; panel 2: transgenic line SKIN2-04 overexpressing SKIN2. For data using more SKIN-Ox and SKIN-Ri lines, see also FIG. 16 online.
FIG. 16. SKINs suppress sugar production necessary for underwater seedling growth. Rice seeds of SKIN-Ox and SKIN-Ri lines were germinated in air or in water with or without 90 mM sucrose for various lengths of time. Shoot length of seedlings were measured daily. Error bars indicate the S.E. of shoot length (n=10). Panel 1: in air; panel 2: in water; panel 3: in water with sucrose.
The experiment was performed as described (Lee et al., 2009). For germination in air, seeds were placed on 3M filter papers wetted with water in a 50-ml centrifuge tube which contains half-strength MS agar medium. For germination under water, seeds were placed in a 50-ml centrifuge tube, autoclaved water was carefully poured into the tube to avoid any air bubbles, and tubes were sealed with lids.

Assay [2] relates to rice seedlings. Description: Seedling shoot and root growth under light/dark cycle or continuous darkness, with or without sucrose. It is filed as in vivo. Conditions: 3% (88 mM) sucrose, 6 days. Here is the method:
FIG. 5. SKINs repress seedling growth by inhibiting nutrient mobilization in the endosperm. Transgenic lines SKIN1-Ox(O3), SKIN1-Ri(R3), SKIN2-Ox(02) and SKIN2-Ri(R1) were used in the following experiments. (A) Seeds were germinated and grown in water at 28° C. under a 14-h light/10-h dark cycle or continuous darkness without (panel 1) or with (panel 2) 3% (90 mM) sucrose for 6 days. (B) Lengths of shoots and roots of seedlings in (A) were quantified. Panels 1 and 2, without and with sucrose, respectively. (C) Seedlings were grown under a 14-h light/10-h dark cycle or continuous darkness for 3 days. Total RNA was extracted and subjected to quantitative (real-time) RT-PCR analysis using primers specific for αAmy3 (panel 1) and EP3A (panel 2). Error bars represent SE (n=12) at significance levels: * p<0.1, **p<0.05 in (B) and (C).
Rice (Oryza sativa cv Tainung 67) and barley (Hordeum vulgare cv Himalaya) were used in this study. Embryo calli were induced in the Murashige & Skoog (MS) medium containing 3% sucrose and […] 2,4-D (2,4-Dichlorophenoxyacetic acid) for 5 days. For hydroponic culture of rice seedlings, seeds were sterilized with 1.5% NaOCl plus Tween 20 for 1 h, washed extensively with distilled water, and germinated in a petri dish with wetted filter papers at 28° C. under a 14-h light/10-h dark condition unless otherwise indicated. […]

For assay [3], the target named is T1, GAD-SnRK1A (full-length SnRK1A 1-505 fused to the Gal4 activation domain) (rice, UniProt Q852Q2 1-505).
T1 construct: range 1-505
T1 sequence (looked up): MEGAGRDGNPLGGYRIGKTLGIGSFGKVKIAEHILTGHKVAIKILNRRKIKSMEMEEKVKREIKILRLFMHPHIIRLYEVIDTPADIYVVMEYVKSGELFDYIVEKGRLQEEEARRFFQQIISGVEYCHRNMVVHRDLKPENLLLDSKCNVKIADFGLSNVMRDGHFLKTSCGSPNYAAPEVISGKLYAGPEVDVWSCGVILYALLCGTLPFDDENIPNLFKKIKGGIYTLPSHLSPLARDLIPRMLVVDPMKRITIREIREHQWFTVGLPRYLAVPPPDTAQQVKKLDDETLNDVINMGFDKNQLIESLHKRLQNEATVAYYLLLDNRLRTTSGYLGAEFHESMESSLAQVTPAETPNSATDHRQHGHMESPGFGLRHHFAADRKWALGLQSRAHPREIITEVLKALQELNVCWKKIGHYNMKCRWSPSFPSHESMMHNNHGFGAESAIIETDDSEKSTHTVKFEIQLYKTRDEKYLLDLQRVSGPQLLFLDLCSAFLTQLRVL
Description: rice embryo GAL4-UAS two-hybrid, luciferase reporter. As to the method:
FIG. 2. The N-terminus of SKIN interacts with the kinase domain of SnRK1A. For the GAL4-UAS two-hybrid assay, rice embryos were co-transfected with effector and reporter plasmids, incubated in −S medium for 24 h, and assayed for luciferase activity. The luciferase activity in rice embryos bombarded with effectors Ubi:GAD, Ubi:GBD and reporter 5XUAS-35S mp:Luc was set to 1×, and other values were calculated relative to this value. Error bars indicate the SE for three replicate experiments. Significance levels: * p<0.1, ** p<0.05. The Y axis indicates the relative luciferase activity with different constructs. (A) Plasmid constructs. (B) Rice embryos were co-transfected with effectors Ubi:GAD-SnRK1A and Ubi:GBD-SKIN (wild type or truncated) and reporter 5XUAS-35S mp:Luc. (C) Rice embryos were co-transfected with effectors Ubi:GAD-SnRK1A [wild type, kinase domain (KD) or regulatory (RD)], Ubi:GBD-SKIN and reporter 5XUAS-35S mp:Luc. (D) Rice embryos were co-transfected with effectors Ubi:GAD-SnRK1A and Ubi:GBD-SKIN and reporter 5XUAS-35S mp:Luc, and incubated in −S medium containing 1 μM ABA.
Rice embryos were prepared for particle bombardment as described (Chen et al., 2006). The rice embryos were bombarded with reporter, effectors and internal control at a ratio of 4:2:1 for single effector or 4:2:2:1 for two effectors. […]

The target of assay [4] is T2, SnRK1A (full length, expressed from Ubi:SnRK1A) (rice, UniProt Q852Q2 1-505).
T2 construct: range 1-505; also called pUbi-SnRK1A-Nos
T2 sequence (looked up): T1 sequence (looked up)
Description: co-expression and confocal localization of GFP fusions in barley aleurone cells. As to the method:
Detection of cellular localization of SKIN-GFP, SnRK1A-GFP and MYBS1-GFP fusion proteins were performed as described (Hong et al., 2012). Embryoless barley and rice seeds were sterilized with 1% NaOCl for 30 mins, and incubated in a buffer containing 20 mM CaCl₂ and 20 mM sodium succinate, pH 5.0, for 4 days. Aleurone layers were isolated by scratching away starch in the endosperm with a razor blade. Four aleurone layers were arranged in a 10-cm dish for bombardment. Aleurone layers expressing GFP were examined with a Ziess confocal microscope (LSM510META) using a 488-nm laser line for excitation and a 515- to 560-nm long pass filter for emission.
The subcellular localization of SKIN and SnRK1A was determined. As SKINs interact with the KD of SnRK1A, the full-length, KD and RD of SnRK1A were fused to the green fluorescence protein (GFP) and expressed under the control of the Ubi promoter in a barley aleurone cell transient expression system (Hong et al., 2012). As shown in FIG. 7 and FIG. 17, SnRK1A-GFP and SnRK1A-KD-GFP were largely localized in the cytoplasm and minor in the nucleus and SnRK1A-RD-GFP mainly in the nucleus, whereas SKIN1-GFP was predominantly localized in the nucleus and minor in the cytoplasm. Co-expression of SnRK1A-GFP with SKIN1 excluded all SnRK1A-GFP from the nucleus. […]

With `OC[C@H]1O[C@@](CO)(O[C@H]2O[C@H](CO)[C@@H](O)[C@H](O)[C@H]2O)[C@@H](O)[C@@H]1O` [sucrose], the “Effect of sucrose on retarded shoot elongation of SKIN-Ox lines” value in assay [1] was “significantly recovered”. For the same molecule, the “Effect of sucrose on growth of SKIN-Ox lines” value in assay [2] is reported as “recover the growth”.

B1: GBD-SKIN2 86-261 (other)
chain: MKLLSSIEQACDICRLKKLKCSKEKPKCAKCLKNNWECRYSPKTKRSPLTRAHLTEVESRLERLEQLFLLIFPREDLDMILKMDSLQDIKALLTGLFVQDNVNKDAVTDRLASVETDMPLTLRQHRISATSSSEESSNKGQRQLTVSSKAKEVAVEVEGGGLGFHGLGTLESLEDALPIKRGLSNFYAGKSKSFTSLAEAAAKAAAKEIAKPENPFNKRRRVLAAWSRRRASCSSLATTYLPPLLAPDHAVVEEEDEEDDSDAEQCSGSGGGNRRREPTFPPPRLSLHAQKSSLTPRSSNPASSFRSPRSFSLSDLQNAGSYN
Consider B1, for which, in assay [3], the binding result is reported as “no binding”.

B2: SKIN1-GFP (other)
chain: MSTAVADVPPAAAYGFPGSAKRGKPEEVVVLMGKRRNEGFFIEEEEEEEEVLTESSSIGAPSPASSSIGENSGEEEGGDDEEEVESKLKAEDEQVGLGCLDALEESLPIKRGLSNFYAGKSKSFTSLAEATASPAAAANELAKPENPFNKRRRILATWSRRASCSSLATATYLPPLLAPDHAVAEGDEGEEEDDDSDDDERQHRGKNGGRRESAAPPLPLPPPRLTLHTQMGGMVRRNGTFRSPRSLSLSDLQNSGGSC
notes: also called Ubi:SKIN1-GFP; SKIN-GFP; not shown: green fluorescence protein (GFP)
In the case of B2, the binding result in assay [4] was “binds”.
